Measurements reported in ChEMBL document CHEMBL3872241, “Synthesis and bioactivity evaluation of 2,3-diaryl acrylonitrile derivatives as potential anticancer agents” (Bioorg Med Chem Lett, 2017).
Calls of active or inactive are those of the source. The calls are words filed in the database; no cut-off is given here.

Experiments:
[1] = system: Bel-7402; assay: Selectivity index, ratio of IC50 for human L02 cells to IC50 for human Bel7402 cells; assay type: functional
[2] = Cell cycle arrest in human HeLa cells assessed as accumulation at G0/G1 phase at 0.1 to 1 uM after 24 hrs by propidium iodide-based FACS analysis (reference value: 61.71%); assay type: functional
[3] = Cytotoxicity against human Bel7402 cells assessed as cell growth inhibition after 48 hrs by MTT assay; assay type: functional, cell-based; conditions: Bel-7402, 48 h
[4] = system: HeLa; assay: Antimigratory activity in human HeLa cells at 1 uM after 24 hrs by wound-scratch assay; assay type: functional, cell-based
[5] = Cytotoxicity against human HeLa cells assessed as cell growth inhibition after 48 hrs by MTT assay; assay type: functional, cell-based
[6] = Cytotoxicity against human HCT116 cells assessed as cell growth inhibition after 48 hrs by MTT assay; assay type: functional, cell-based; conditions: HCT-116, 48 h
[7] = system: HeLa; assay: Selectivity index, ratio of IC50 for human L02 cells to IC50 for human HeLa cells; assay type: functional
[8] = Cytotoxicity against human L02 cells assessed as cell growth inhibition after 48 hrs by MTT assay; assay type: toxicity, cell-based
[9] = Cell cycle arrest in human HeLa cells assessed as accumulation at S phase at 0.1 to 1 uM after 24 hrs by propidium iodide-based FACS analysis (reference value: 31.26%); assay type: functional
[10] = Cell cycle arrest in human HeLa cells assessed as accumulation at G2/M phase at 0.1 to 1 uM after 24 hrs by propidium iodide-based FACS analysis (reference value: 7.12%); assay type: functional
[11] = system: HeLa; assay: Induction of apoptosis in human HeLa cells assessed as increase in early apoptotic cells at 0.1 uM after 24 hrs by Annexin V-FITC/propidium iodide based FACS analysis; assay type: functional, cell-based
[12] = system: HCT-116; assay: Selectivity index, ratio of IC50 for human L02 cells to IC50 for human HCT116 cells; assay type: functional
[13] = Cytotoxicity against human Caco2 cells assessed as cell growth inhibition at 0.3 uM by SRB assay; assay type: functional; conditions: Caco-2, read-out: GI
[14] = Cell cycle arrest in human HeLa cells assessed as accumulation at G0/G1 phase at 50 uM after 24 hrs by propidium iodide-based FACS analysis (reference value: 61.71%); assay type: functional
[15] = Cell cycle arrest in human HeLa cells assessed as accumulation at G2/M phase at 50 uM after 24 hrs by propidium iodide-based FACS analysis (reference value: 7.12%); assay type: functional
[16] = Cell cycle arrest in human HeLa cells assessed as accumulation at S phase at 50 uM after 24 hrs by propidium iodide-based FACS analysis (reference value: 31.26%); assay type: functional
[17] = system: Bel-7402; assay: Cytotoxicity against human Bel7402 cells assessed as cell growth inhibition at 100 uM after 48 hrs by MTT assay; assay type: functional
[18] = system: HCT-116; assay: Cytotoxicity against human HCT116 cells assessed as cell growth inhibition at 100 uM after 48 hrs by MTT assay; assay type: functional

For CC(=O)O[C@H]1C(=O)[C@@]2(C)[C@H]([C@H](OC(=O)c3ccccc3)[C@]3(O)C[C@H](OC(=O)[C@H](O)[C@@H](NC(=O)c4ccccc4)c4ccccc4)C(C)=C1C3(C)C)[C@]1(OC(C)=O)CO[C@@H]1C[C@@H]2O [PACLITAXEL], the “Ratio IC50” value [1] was >1000, the Activity [2] was 1.03% and the IC50 [3] was < 0.1 µM. The Activity [4] was “Active”, the IC50 [5] was 13 µM and the IC50 [6] was < 0.1 µM. The “Ratio IC50” value [7] was >7.72, the IC50 at 48 h [8] was > 100 µM and the Activity [9] was 28.5%. For the same compound, the Activity [10] was 70.6%, the Activity [11] was “Active” and the “Ratio IC50” value [12] was >1000.
With COc1ccc(/C=C\c2cc(OC)cc(OC)c2)cc1 [8Z-3,4',5-TRIMETHOXYSTILBENE] the inhibition of growth at 0.3 µM [13] was 80%.
Oc1ccc(/C=C/c2cc(O)cc(O)c2)cc1 [RESVERATROL] showed an Activity [14] of 72%, an Activity [15] of 6.29% and an Activity [16] of 21.8%. For the same compound, the IC50 [3] was 139 µM, the “growth inhibition (GI)” value [17] was “Active” and the IC50 [5] was 120 µM. For the same compound, the IC50 [6] was 62.6 µM and the “growth inhibition (GI)” value [18] was “Active”.
